According to patent publication US20170298056A1, “SMALL MOLECULE INHIBITORS OF HIV-1 ENTRY AND METHODS OF USE THEREOF” (Dana-Farber Cancer Institute, Inc., priority 2014, published 2017):

Experiments:
[1] = tested on: HIV-1HXBc2; test: Viral infection assay, CXCR4-tropic virus, Cf2Th-CD4/CXCR4 cells; type: cell-based; settings: HIV-1HXBc2, Cf2Th cells expressing CD4 and CXCR4
[2] = tested on: HIV-2OC1; test: Viral infection assay, HIV-2 Env; type: cell-based; settings: virus with HIV-2OC1 Env
Experimental: Production of recombinant HIV-1 expressing luciferase. […] After 48 hours, the supernatant was collected, buffered with 50 mM Hepes pH 7.4 (final concentration) and centrifuged for 5 minutes at 750×g and 4° C. The virus-containing supernatant was used directly or frozen at −80° C.
Viral infection assay. Each test compound was serially diluted in DMSO in a 96-well B&W isoplate (PerkinElmer, Boston, Mass.) using an HP D300 Digital Dispenser, to a final volume of 450 nl. DMSO was used as a control. Viruses pseudotyped with a specific Env were added to each well and incubated briefly at room temperature. Cf2Th-CD4/CCR5 cells were detached with StemPro Accutase Cell Dissociation Reagent (Invitrogen, cat #A11105-01), washed once, and 5000 cells were added to each well. […] Following incubation, the medium was aspirated and cells were lysed with 30 μl of Passive Lysis Buffer (Promega, cat #E1941). The activity of the firefly luciferase, which was used as a reporter protein in the system, was measured with a Centro LB 960 luminometer (Berthold Technologies, Oak Ridge, Tenn.). One hundred microliters of assay buffer (15 mM MgSO4, 15 mM KH2PO4/K2HPO4 pH 7.8, 1 mM ATP and 1 mM DTT) was injected to each well, followed by a 50 μl injection of 1 mM Dluciferin potassium salt (BD Pharmingen, San Jose, Calif.); luminescence was measured for 2 sec. […]

[3] = tested on: Cf2Th-CD4/CCR5 cells; test: Viability assay (CellTiterGlo), CD4/CCR5-expressing target cells; type: cell-based; settings: read-out: half-maximal cytotoxic concentration (CC50)
Experimental: (§1) Viability Assay. As part of the secondary screen, cells were incubated for ˜20 hours in 384-well plates in a final volume of 45 μl growth medium at 37° C. The plate was equilibrated to room temperature, 15 μl of CellTiterGlo (Promega) was added to each well and luminescence was measured as described above. The viability assay with 18A was done in parallel to the viral infection assay for the same length of time. 18A was diluted using an HP D300 Digital Dispenser in a 96-well B&W isoplate and cells were added. After incubation of 26-30 hours (Cf2Th cells) or 40-44 hours (PBMC). 30 μl (Cf2Th cells) or 100 μl (PBMC) of CellTiterGlo was added and luminescence was measured as described above.

[4] = tested on: Cf2Th-CD4/CXCR4 cells; test: Viability assay (CellTiterGlo), CD4/CXCR4-expressing target cells; type: cell-based
Experimental: as §1

[5] = tested on: HIV-1JR-FL gp120; test: ELISA, binding of monoclonal antibodies to gp120 in presence of compound; settings: preincubation of gp120 with 18A
Experimental: Enzyme-linked immunosorbent assay (ELISA). […] Wells were blocked with blocking buffer (5% nonfat dry milk (Bio-Rad) in PBS) for 2 hours and then washed twice with PBS. Between 0.25 and 0.5 μg of purified HIV-1JR-FL gp120 in blocking buffer was added to each well; the plate was incubated for 60 minutes and washed thrice with PBS. […] The plate was incubated for a further 30 minutes and washed thrice with 0.05% Tween in PBS and thrice with PBS. […] The plate was incubated for 30 minutes, washed three times with 0.05% Tween in PBS and three times with PBS, as before, and 80 μl of SuperSignal chemiluminescent substrate (Pierce) was added to each well. The relative light units in each well were measured for 2 sec with a Centro LB 960 luminometer (Berthold Technologies). All procedures were performed at room temperature. Cellbased ELISA was performed.

## O=C(N/N=C/c1ccc(O)cc1)Nc1cccc2nsnc12 [Compound 18A]
[1]
  IC50: ~25 µM
[2]
  inhibition of infection: significantly less potent
[3]
  CC50: 44 µM
[4]
  CC50: 63 µM
[5]
  binding of E51, 17b and 412d (CD4i) antibodies to gp120: modest but reproducible decrease
  binding of most monoclonal antibodies to gp120: not affected
